Non-standard residues stand in square brackets, D forms with d. Residues, ends and D or L forms follow the SMILES beside them.
target: T1, Galanin receptor type 3 (Homo sapiens, UniProt O60755)
T1 sequence (O60755 whole entry): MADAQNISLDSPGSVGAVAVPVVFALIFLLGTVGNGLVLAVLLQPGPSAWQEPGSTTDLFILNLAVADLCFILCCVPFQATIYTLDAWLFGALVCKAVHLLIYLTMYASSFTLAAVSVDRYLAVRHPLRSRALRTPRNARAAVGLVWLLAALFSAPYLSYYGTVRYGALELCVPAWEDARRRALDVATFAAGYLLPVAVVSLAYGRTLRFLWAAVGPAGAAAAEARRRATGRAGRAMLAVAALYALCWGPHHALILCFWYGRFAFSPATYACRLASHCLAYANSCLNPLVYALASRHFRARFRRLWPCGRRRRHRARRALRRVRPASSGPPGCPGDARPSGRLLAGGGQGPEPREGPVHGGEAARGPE

`CC[C@H](C)[C@H](NC(=O)[C@H](C)NC(=O)[C@H](Cc1c[nH]cn1)NC(=O)[C@@H]1CCCN1C(=O)CNC(=O)[C@H](CC(C)C)NC(=O)[C@H](CC(C)C)NC(=O)[C@H](Cc1ccc(O)cc1)NC(=O)CNC(=O)[C@H](C)NC(=O)[C@H](CO)NC(=O)[C@H](CC(N)=O)NC(=O)[C@H](CC(C)C)NC(=O)[C@@H](NC(=O)[C@@H](N)Cc1c[nH]c2ccccc12)[C@@H](C)O)C(=O)N[C@@H](CC(=O)O)C(=O)N[C@@H](CC(N)=O)C(=O)N[C@@H](Cc1c[nH]cn1)C(=O)N[C@@H](CCCNC(=N)N)C(=O)N[C@@H](CO)C(=O)N[C@@H](Cc1ccccc1)C(=O)N[C@@H](CO)C(=O)N[C@@H](CC(=O)O)C(=O)N[C@@H](CCCCN)C(=O)N[C@@H](Cc1c[nH]cn1)C(=O)NCC(=O)N[C@@H](CC(C)C)C(=O)N[C@H](C(N)=O)[C@@H](C)O` [Galanin Porcine 2-29] was tested, and the Ki was 60.3 nM.

target: T2, Galanin receptor type 2 (Homo sapiens, UniProt O43603)
T2 sequence (O43603 whole entry): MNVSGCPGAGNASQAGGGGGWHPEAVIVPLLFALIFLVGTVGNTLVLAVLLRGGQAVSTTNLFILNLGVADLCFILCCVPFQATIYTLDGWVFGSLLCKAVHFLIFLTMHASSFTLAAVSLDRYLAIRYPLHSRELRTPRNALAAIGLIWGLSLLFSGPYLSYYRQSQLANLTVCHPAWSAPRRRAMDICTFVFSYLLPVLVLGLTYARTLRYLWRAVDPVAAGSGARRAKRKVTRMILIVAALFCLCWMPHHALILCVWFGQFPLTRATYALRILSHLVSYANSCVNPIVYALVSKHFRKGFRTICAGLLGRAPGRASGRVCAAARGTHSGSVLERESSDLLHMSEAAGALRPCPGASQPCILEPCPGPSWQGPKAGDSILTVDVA

Going from `CC(C)C[C@H](NC(=O)[C@H](CC(C)C)NC(=O)[C@H](Cc1ccc(O)cc1)NC(=O)CNC(=O)[C@H](C)NC(=O)[C@H](CO)NC(=O)[C@H](CC(N)=O)NC(=O)[C@H](CC(C)C)NC(=O)[C@@H](NC(=O)[C@H](Cc1c[nH]c2ccccc12)NC(=O)CN)[C@@H](C)O)C(=O)NCC(=O)N1CCC[C@H]1C(=O)N1CCC[C@H]1C(=O)N1CCC[C@H]1C(=O)NCC(=O)N[C@@H](Cc1ccccc1)C(=O)N[C@@H](CO)C(=O)N1CCC[C@H]1C(=O)N[C@@H](Cc1ccccc1)C(=O)N[C@@H](CCCN=C(N)N)C(N)=O` to `COc1ccccc1N(CCOc1ccc(C)cc1)C(=O)CN1CCCCC1` [CAS_3043476], the Ki falls from 1.95 nM to 1.07 nM (1.8-fold).

First: CC(C)C[C@H](NC(=O)[C@H](CC(C)C)NC(=O)[C@@H](Cc1c[nH]c2ccccc12)NC(=O)[C@H](Cc1ccccc1)NC(=O)[C@@H](Cc1c[nH]c2ccccc12)NC(=O)[C@H](CCC(N)=O)NC(=O)[C@H](CCC(N)=O)NC(=O)[C@@H]1CCCN1C(=O)[C@H](CCCCN)NC(=O)[C@@H]1CCCN1C(=O)[C@@H](CCCN=C(N)N)NC(=O)[C@@H]1CCCN1C(=O)CNC(=O)[C@H](CC(C)C)NC(=O)[C@H](CC(C)C)NC(=O)[C@H](Cc1ccc(O)cc1)NC(=O)CNC(=O)[C@H](C)NC(=O)[C@H](CO)NC(=O)[C@H](CC(N)=O)NC(=O)[C@H](CC(C)C)NC(=O)[C@@H](NC(=O)[C@H](Cc1c[nH]c2ccccc12)NC(=O)CN)[C@@H](C)O)C(N)=O [Gal(1-13)-Std I] (H-GWTLNSAGYLLGP[dR]PKPQQ[dW]F[dW]LL-NH2)
Second: CC[C@H](C)[C@H](NC(=O)[C@H](C)NC(=O)[C@H](Cc1c[nH]cn1)NC(=O)[C@@H]1CCCN1C(=O)CNC(=O)[C@H](CC(C)C)NC(=O)[C@H](CC(C)C)NC(=O)[C@H](Cc1ccc(O)cc1)NC(=O)CNC(=O)[C@H](C)NC(=O)[C@H](CO)NC(=O)[C@H](CC(N)=O)NC(=O)[C@H](CC(C)C)NC(=O)[C@@H](N)[C@@H](C)O)C(=O)N[C@@H](CC(=O)O)C(=O)N[C@@H](CC(N)=O)C(=O)N[C@@H](Cc1c[nH]cn1)C(=O)N[C@@H](CCCNC(=N)N)C(=O)N[C@@H](CO)C(=O)N[C@@H](Cc1ccccc1)C(=O)N[C@@H](Cc1c[nH]cn1)C(=O)N[C@@H](CC(=O)O)C(=O)N[C@@H](CCCCN)C(=O)N[C@@H](Cc1ccc(O)cc1)C(=O)NCC(=O)N[C@@H](CC(C)C)C(=O)N[C@@H](C)C(N)=O [Galanin (3-29), porcine]
The Ki of the first is 1600-fold lower: 0.63 nM for the first, 1000 nM for the second. The first binds more tightly here.

First: CC[C@H](C)[C@H](NC(=O)[C@H](C)NC(=O)[C@H](Cc1c[nH]cn1)NC(=O)[C@@H]1CCCN1C(=O)CNC(=O)[C@H](CC(C)C)NC(=O)[C@H](CC(C)C)NC(=O)[C@H](Cc1ccc(O)cc1)NC(=O)CNC(=O)[C@H](C)NC(=O)[C@H](CO)NC(=O)[C@H](CC(N)=O)NC(=O)[C@H](CC(C)C)NC(=O)[C@@H](NC(=O)[C@@H](N)Cc1c[nH]c2ccccc12)[C@@H](C)O)C(=O)N[C@@H](CC(=O)O)C(=O)N[C@@H](CC(N)=O)C(=O)N[C@@H](Cc1c[nH]cn1)C(=O)N[C@@H](CCCNC(=N)N)C(=O)N[C@@H](CO)C(=O)N[C@@H](Cc1ccccc1)C(=O)N[C@@H](CO)C(=O)N[C@@H](CC(=O)O)C(=O)N[C@@H](CCCCN)C(=O)N[C@@H](Cc1c[nH]cn1)C(=O)NCC(=O)N[C@@H](CC(C)C)C(=O)N[C@H](C(N)=O)[C@@H](C)O [Galanin Porcine 2-29]
Second: CC[C@H](C)[C@H](NC(=O)[C@H](C)NC(=O)[C@H](Cc1cnc[nH]1)NC(=O)[C@@H]1CCCN1C(=O)CNC(=O)[C@H](CC(C)C)NC(=O)[C@H](CC(C)C)NC(=O)[C@H](Cc1ccc(O)cc1)NC(=O)CNC(=O)[C@H](C)NC(=O)[C@H](CO)NC(=O)[C@H](CC(N)=O)NC(=O)[C@H](CC(C)C)NC(=O)[C@@H](NC(=O)[C@H](Cc1c[nH]c2ccccc12)NC(=O)CN)[C@@H](C)O)C(=O)N[C@@H](CC(=O)O)C(=O)N[C@@H](CC(N)=O)C(=O)N[C@@H](Cc1cnc[nH]1)C(N)=O [Galanin rat]
The Ki of the first is 1.8-fold higher: 2.88 nM for the first, 1.62 nM for the second.

H-GWTLNSAGYLLGPPPALALA-NH2 [M40] was tested, and the Ki was 4.07 nM.

Source: BindingDB's records for doi:10.1016/s0196-9781(98)00133-8 (Synaptic Pharmaceutical, 1998)
